Publication PMC3673949, “Small Molecule R1498 as a Well-Tolerated and Orally Active Kinase Inhibitor for Hepatocellular Carcinoma and Gastric Cancer Treatment via Targeting Angiogenesis and Mitosis Pathways” (PLoS ONE, 2013)
Read-outs that look alike come from different tables or passages of the source.

How the values were obtained:
CNE-2 xenograft = settings: CNE-2, 100 mg/kg, every 10 days, intraperitoneal injection; for Final TGI%: day of study termination
Text: The use and care of experimental animal was approved by Institutional Animal Care and Use Committee, Roche R&D Center (China). Tumor cells were inoculated into the right flank of BALB/C nu/nu female nude mice (5∼6 weeks, 16∼18 g, obtained from Sino-British SIPPR/BK Lab. Animal Ltd, Shanghai, China) at optimal density based on our in-house validation study. After the tumor was established and reached 100∼150 mm^3, the mice were randomized into ten mice per group and received treatment according to the schedule. The tumor growth was recorded three times a week with the measurement of length (L) and width (W) by caliper, and calculated as tumor volume (TV, mm^3) = 0.5*L*W*W (mm). […] The tumor regression of individual mouse was defined - the tumor volume at the end was less than the tumor volume when treatment was initiated.

[1] = tested on: colorectal cancer, breast cancer, melanoma, and leukemia xenografts; settings: 150∼225 mg/kg once daily per oral; cited from earlier work
HGC-27 xenograft = test: Xenograft efficacy study; assay type: in vivo, BALB/C nu/nu nude mice; settings: HGC-27, 25 mg/kg twice a day per oral gavage
MGC-803 xenograft = test: Xenograft efficacy study; assay type: in vivo, BALB/C nu/nu nude mice; settings: MGC-803, 25 mg/kg twice a day per oral gavage
HCCLM3 xenograft = test: Xenograft efficacy study; assay type: in vivo, BALB/C nu/nu nude mice; settings: HCCLM3, 12.5 mg/kg twice a day per oral gavage
BEL-7402 xenograft = test: Xenograft efficacy study; assay type: in vivo, BALB/C nu/nu nude mice
BGC-823 xenograft = test: Xenograft efficacy study; assay type: in vivo, BALB/C nu/nu nude mice; settings: BGC-823, 25 mg/kg twice a day per oral gavage
[2] = tested on: advanced and metastatic HCC; settings: first line therapy; placebo group 7.9 months; cited from earlier work
SGC-7901 xenograft = test: Xenograft efficacy study; assay type: in vivo, BALB/C nu/nu nude mice
Raf-1 = settings: cited from earlier work
BEL-7404 xenograft = test: Xenograft efficacy study; assay type: in vivo, BALB/C nu/nu nude mice; settings: BEL-7404, 12.5 mg/kg twice a day per oral gavage
Ret = settings: cited from earlier work
KIT = settings: cited from earlier work
[3] = day of study termination (Table S2)

SMILES: O=P1(N(CCCl)CCCl)NCCCO1 (centres unmarked) [Cyclophosphamide, cyclophosphamide]
- Final TGI% (CNE-2 xenograft): 58%
- Final TGI% (CNE-2 xenograft; listed as cyclophosphamide): 60%
- Body weight changes% (CNE-2 xenograft; before vs after treatment): -2.1%
- Tumor Regression (CNE-2 xenograft; mice with regression/group): 0/10

SMILES: Cc1cc(Nc2cc(N3CCN(C)CC3)nc(/C=C/c3ccccc3)n2)n[nH]1 [ENMD-2076]
- TGI% [1]: ~90%

SMILES: CNC(=O)c1cc(Oc2ccc(NC(=O)Nc3ccc(Cl)c(C(F)(F)F)c3)cc2)ccn1 [Sorafenib, sorafenib, reference compound]
- Final TGI% (HGC-27 xenograft; day of study termination): 83%
- Body weight changes% (HGC-27 xenograft; before vs after treatment): -5.5%
- Tumor Regression (HGC-27 xenograft; mice with regression/group): 0/10
- Final TGI% (MGC-803 xenograft; day of study termination): 92%
- Body weight changes% (MGC-803 xenograft; before vs after treatment): -2.4%
- Tumor Regression (MGC-803 xenograft; mice with regression/group): 2/10
- Final TGI% (HCCLM3 xenograft; day of study termination): 71%
- Body weight changes% (HCCLM3 xenograft; before vs after treatment): 4.4%
- Tumor Regression (HCCLM3 xenograft; mice with regression/group): 0/10
- Final TGI% (BEL-7402 xenograft; BEL-7402, 25 mg/kg twice a day per oral gavage, day of study termination): 83%
- Body weight changes% (BEL-7402 xenograft; BEL-7402, 25 mg/kg twice a day per oral gavage, before vs after treatment): -16%
- Tumor Regression (BEL-7402 xenograft; BEL-7402, 25 mg/kg twice a day per oral gavage, mice with regression/group): 1/10
- percentage of body weight loss (BEL-7402 xenograft; BEL-7402 model, 25 mg/kg twice daily per oral, termination day): exceeded 15%
- Final TGI% (BGC-823 xenograft; [3]): 82%
- Body weight changes% (BGC-823 xenograft; before vs after treatment): -3.5%
- Tumor Regression (BGC-823 xenograft; mice with regression/group): 0/10
- median survival time [2]: 10.7 months
- Final TGI% (SGC-7901 xenograft; SGC-7901, 25 mg/kg twice a day per oral gavage, day of study termination (Table S2)): 95%
- Body weight changes% (SGC-7901 xenograft; SGC-7901, 25 mg/kg twice a day per oral gavage, before vs after treatment): -18%
- Tumor Regression (SGC-7901 xenograft; SGC-7901, 25 mg/kg twice a day per oral gavage, mice with regression/group): 2/10
- percentage of body weight loss (SGC-7901 xenograft; SGC-7901 model, 25 mg/kg twice daily per oral, termination day): exceeded 15%
- Final TGI% (BEL-7404 xenograft; [3]): 75%
- Body weight changes% (BEL-7404 xenograft; before vs after treatment): -4.2%
- Tumor Regression (BEL-7404 xenograft; mice with regression/group): 0/10

SMILES: CNC(=O)c1cc(Oc2ccc(NC(=O)Nc3ccc(Cl)c(C(F)(F)F)c3)c(F)c2)ccn1 [regorafenib]
- IC50 (Ret): 1.5 nM
- IC50 (KIT): 7 nM
